# Experimental data reported in publication PMC11320734 (ACS Pharmacology & Translational Science, 2024).
# Legend:
# mouse CB2R = target: T1, mouse CB2R (Mus musculus, UniProt P47936); assay: cAMP assay in CHO cells; format: cell-based; conditions: mean ± SD
# T1 construct: expressed in transfected cells; host or cells: CHO cells
# MAGL = MAGL (Homo sapiens, UniProt Q99685); assay: Endocannabinoid target profiling: MAGL; format: biochemical
# ABHD12 = ABHD12 (Homo sapiens, UniProt Q8N2K0); assay: Endocannabinoid target profiling: ABHD12; format: biochemical
# PPARg = PPARg (Homo sapiens, UniProt P37231); assay: Endocannabinoid target profiling: PPARg; conditions: Table S1; read-out: PPARg (Ki, IC50)
# [1] = Aqueous stability assay (ASTA); format: physicochemical
# Protocol: The stability of the compound was assessed using the aqueous stability assay (ASTA), as previously described.[37] In short, aqueous solutions of RNB-61 were prepared at 5 different pH values (range 1–10), added to incubation plates and shaken for 10 min at 37 °C. Solutions were transferred to a filter plate (Millipore MSGVN2250, pore size 0.22 μm) and filtered into V- bottom plates (ABGene, AB-0800) prior to heat-sealing. The procedure was repeated, increasing the 37 °C incubation time by 2 h. Samples were analyzed by HPLC at 0 and 2 h. A compound was classified as unstable if <90% of the initial concentration was detected after 2 h.
# Microsomal clearance = format: in vitro ADME; conditions: mouse, mouse microsomes; Table 3
# Protocol: The hepatocyte clearance assay was performed as previously described.[39] For mice hepatocytes, the suspension cultures were either freshly prepared by liver perfusion or prepared from cryopreserved hepatocyte batches (pooled C57BL6 mouse hepatocytes were purchased from BioreclamationIVT (NY, USA)). For human hepatocytes, commercially available, pooled (5–20 donors), cryopreserved samples from nontransplantable liver tissues were used. For the suspension cultures, Nunc U96 PP-0.5 mL (Nunc Natural, 267245) plates were used, which were incubated in a Thermo Forma incubator from Fischer Scientific (Wohlen, Switzerland) equipped with shakers from Variomag Teleshake (Sterico, Wangen, Switzerland) for maintaining cell dispersion. The cell culture medium was William’s media supplemented with glutamine, antibiotics (100 IU/mL Penicillin-Streptomycin, Gibco), insulin, dexamethasone, and 10% fetal calf serum (FCS). Incubations of a test compound at 1 μM test concentration in suspension cultures of 1 × 10^6 cells mL^–1 (∼1 μg μL^–1 protein concentration) were performed in 96-well plates and shaken at 900 rpm for up to 2 h in a 5% CO2 atmosphere at 37 °C. After 3, 6, 10, 20, 40, 60, and 120 min, a 100 μL cell suspension in each well was quenched with 200 μL methanol containing an internal standard. Samples were then cooled and centrifuged before analysis by LC-MS/MS. […]
# hERG channel = hERG channel (Homo sapiens, UniProt Q12809); assay: hERG inhibition; format: cell-based
# [2] = Rodent single-dose PK studies (summary rats and mice); format: in vivo
# Protocol: To characterize the pharmacokinetic behavior of RNB-61, studies in rodents were conducted at the in vivo facility of F. Hoffmann-La Roche Ltd. (Basel, Switzerland). The plasma-concentration time profile was studied in rodents after single-dose RNB-61 administration by oral gavage (p.o. microsuspension excipients 7.5% gelatin/0.62% NaCl) and intravenous bolus injection (i.v. solution, excipients NMP:NaCl (30:70)). Three groups of male Wistar rats (n = 2 per group) were administered RNB-61 either at 1 mg kg^–1 i.v., 3 mg kg^–1 p.o., or 26 mg kg^–1 p.o. Plasma samples were drawn at 0.083, 0.25, 0.5, 1, 2, 4, 8, and 24 postdose in the i.v. group and at 0.25, 0.5, 0.75, 1.5, 3, 5, 8, and 24 h postdose in the p.o. groups. The samples were analyzed for RNB-61 concentration by LC/MS-MS. For the LC/MS-MS analysis, and the samples were prepared by adding 100 uL to 400 uL ACN with ISTD (100 ng/mL Bosantan in ACN/MeOH 1/1), stirring, and centrifuging (4000 rpm, 65’). 100 uL of the supernatant were pipetted and diluted with 400 μL H2O at pH 3. The analytes were separated on a Restek C18 column (5 μm, 1.0 × 3 mm). The mobile phase consisted of water containing 0.1% HCOOH as solvent A and ACN containing 0.1% HCOOH as solvent B. The gradient curve starting with 5% B was changed to 90% B between 0.4 and 0.6 min and further increased to 95% B between 0.6 and 1.2 min. This was maintained until 1.4 min and then reduced and kept at 5% B between 1.45 and 2.0 min. The mass spectrometer was operated in the positive mode. All LC-MS/MS was done using the Agilent RapidFire Analyzer software (version 4.3). The pharmacokinetic parameters were estimated by noncompartmental analysis in the Certara WinNonlin software (version 5.3). A similar study design was run in mice with three groups receiving 2 mg kg^–1 i.v., 4 mg kg^–1 p.o., or 26 mg kg^–1 p.o., and plasma sampling occurring in a composite profile (n = 2 for each time point) up to 7 or 24 h postdose. Male C57/BL6 mice (n = 5 per group) were used to study the influence of P-gp efflux on brain penetration. […]
# human CB2R = human CB2R (Homo sapiens, UniProt P34972); assay: Competition binding assay with [3H]-CP55940, HEK cell membranes
# human CB2R, sequence (P34972 whole entry): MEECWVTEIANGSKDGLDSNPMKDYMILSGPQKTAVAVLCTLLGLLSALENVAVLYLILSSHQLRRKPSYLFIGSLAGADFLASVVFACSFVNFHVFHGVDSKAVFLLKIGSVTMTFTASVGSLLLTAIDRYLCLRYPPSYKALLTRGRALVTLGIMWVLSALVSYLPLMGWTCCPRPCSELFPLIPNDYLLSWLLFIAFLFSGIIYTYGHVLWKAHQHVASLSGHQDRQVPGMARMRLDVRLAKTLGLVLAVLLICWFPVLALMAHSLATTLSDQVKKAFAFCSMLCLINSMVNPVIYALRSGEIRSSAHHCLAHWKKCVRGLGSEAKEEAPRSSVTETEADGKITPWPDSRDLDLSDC
# Protocol: Competition and saturation binding assays were performed using the radiolabeled CB1R/CB2R agonist [^3H]-CP55940 (PerkinElmer).
# Binding reactions were terminated by vacuum filtration onto 0.5% polyethylenimine presoaked GF/B filter plates (Packard) using a Filtermate cell harvester followed by 6 brief washes with 0.3 mL/well of ice-cold wash buffer. Wash buffer comprising 50 mmol L^–1 Tris- HCl, 5 mmol L^–1 MgCl2, 2.5 mmol L^–1 EDTA, and 0.5% fatty acid-free BSA, pH 7.4. Plates were dried at 50 °C for 1 h and liquid scintillation counting was used to determine levels of bound radiolabel. IC50 values and Hill slopes were determined with a 4-parameter logistic model using ActivityBase (ID Business Solution, Guilford, UK) and pKi values were determined using the Cheng–Prusoff equation as shown below: [drawing 1] where S indicates the concentration of the substrate and Km depicts the affinity constant of the substrate.
# MAGL, sequence (Q99685 whole entry, species assumed): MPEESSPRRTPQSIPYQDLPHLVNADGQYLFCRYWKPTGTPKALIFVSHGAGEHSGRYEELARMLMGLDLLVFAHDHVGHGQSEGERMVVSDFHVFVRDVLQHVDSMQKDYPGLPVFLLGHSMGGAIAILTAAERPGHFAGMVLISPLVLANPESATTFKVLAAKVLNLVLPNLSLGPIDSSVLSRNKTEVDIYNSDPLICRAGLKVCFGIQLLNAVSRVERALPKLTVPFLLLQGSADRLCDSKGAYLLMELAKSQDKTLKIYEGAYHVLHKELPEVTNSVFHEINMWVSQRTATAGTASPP
# ABHD12, sequence (Q8N2K0 whole entry, species assumed): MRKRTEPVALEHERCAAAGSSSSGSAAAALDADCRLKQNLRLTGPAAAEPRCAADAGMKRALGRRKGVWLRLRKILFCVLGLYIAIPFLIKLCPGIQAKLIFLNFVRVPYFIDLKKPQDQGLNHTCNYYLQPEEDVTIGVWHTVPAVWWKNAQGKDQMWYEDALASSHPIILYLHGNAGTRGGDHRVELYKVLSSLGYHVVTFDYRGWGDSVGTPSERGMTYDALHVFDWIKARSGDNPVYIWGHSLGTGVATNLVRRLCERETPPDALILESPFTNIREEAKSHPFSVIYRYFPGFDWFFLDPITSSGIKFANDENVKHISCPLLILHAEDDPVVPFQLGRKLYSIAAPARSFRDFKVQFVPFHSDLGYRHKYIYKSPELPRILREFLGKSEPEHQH
# T1 sequence (P47936 whole entry): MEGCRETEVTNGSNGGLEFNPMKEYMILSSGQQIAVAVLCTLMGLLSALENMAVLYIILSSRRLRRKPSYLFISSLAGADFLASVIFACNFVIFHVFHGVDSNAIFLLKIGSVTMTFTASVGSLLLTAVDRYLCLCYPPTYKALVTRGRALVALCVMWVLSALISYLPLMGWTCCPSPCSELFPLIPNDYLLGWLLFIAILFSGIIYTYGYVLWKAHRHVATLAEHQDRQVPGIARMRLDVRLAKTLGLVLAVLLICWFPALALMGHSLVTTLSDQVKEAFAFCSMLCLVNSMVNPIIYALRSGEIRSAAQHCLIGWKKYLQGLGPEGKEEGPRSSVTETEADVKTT
# PPARg, sequence (P37231 whole entry, species assumed): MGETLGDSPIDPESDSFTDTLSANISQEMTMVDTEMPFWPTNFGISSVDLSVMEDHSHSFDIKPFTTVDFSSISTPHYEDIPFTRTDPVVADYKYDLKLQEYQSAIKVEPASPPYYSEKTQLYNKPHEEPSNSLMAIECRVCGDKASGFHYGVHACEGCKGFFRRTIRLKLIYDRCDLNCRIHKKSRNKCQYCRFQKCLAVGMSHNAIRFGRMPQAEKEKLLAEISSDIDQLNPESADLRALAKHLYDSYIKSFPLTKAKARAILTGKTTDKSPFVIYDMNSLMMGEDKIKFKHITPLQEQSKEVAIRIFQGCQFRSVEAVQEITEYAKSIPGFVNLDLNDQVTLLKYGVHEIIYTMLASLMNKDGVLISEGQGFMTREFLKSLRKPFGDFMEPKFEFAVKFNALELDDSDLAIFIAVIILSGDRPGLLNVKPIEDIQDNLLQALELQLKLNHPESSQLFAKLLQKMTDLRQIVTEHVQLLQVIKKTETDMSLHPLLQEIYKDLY
# hERG channel, sequence (Q12809 whole entry): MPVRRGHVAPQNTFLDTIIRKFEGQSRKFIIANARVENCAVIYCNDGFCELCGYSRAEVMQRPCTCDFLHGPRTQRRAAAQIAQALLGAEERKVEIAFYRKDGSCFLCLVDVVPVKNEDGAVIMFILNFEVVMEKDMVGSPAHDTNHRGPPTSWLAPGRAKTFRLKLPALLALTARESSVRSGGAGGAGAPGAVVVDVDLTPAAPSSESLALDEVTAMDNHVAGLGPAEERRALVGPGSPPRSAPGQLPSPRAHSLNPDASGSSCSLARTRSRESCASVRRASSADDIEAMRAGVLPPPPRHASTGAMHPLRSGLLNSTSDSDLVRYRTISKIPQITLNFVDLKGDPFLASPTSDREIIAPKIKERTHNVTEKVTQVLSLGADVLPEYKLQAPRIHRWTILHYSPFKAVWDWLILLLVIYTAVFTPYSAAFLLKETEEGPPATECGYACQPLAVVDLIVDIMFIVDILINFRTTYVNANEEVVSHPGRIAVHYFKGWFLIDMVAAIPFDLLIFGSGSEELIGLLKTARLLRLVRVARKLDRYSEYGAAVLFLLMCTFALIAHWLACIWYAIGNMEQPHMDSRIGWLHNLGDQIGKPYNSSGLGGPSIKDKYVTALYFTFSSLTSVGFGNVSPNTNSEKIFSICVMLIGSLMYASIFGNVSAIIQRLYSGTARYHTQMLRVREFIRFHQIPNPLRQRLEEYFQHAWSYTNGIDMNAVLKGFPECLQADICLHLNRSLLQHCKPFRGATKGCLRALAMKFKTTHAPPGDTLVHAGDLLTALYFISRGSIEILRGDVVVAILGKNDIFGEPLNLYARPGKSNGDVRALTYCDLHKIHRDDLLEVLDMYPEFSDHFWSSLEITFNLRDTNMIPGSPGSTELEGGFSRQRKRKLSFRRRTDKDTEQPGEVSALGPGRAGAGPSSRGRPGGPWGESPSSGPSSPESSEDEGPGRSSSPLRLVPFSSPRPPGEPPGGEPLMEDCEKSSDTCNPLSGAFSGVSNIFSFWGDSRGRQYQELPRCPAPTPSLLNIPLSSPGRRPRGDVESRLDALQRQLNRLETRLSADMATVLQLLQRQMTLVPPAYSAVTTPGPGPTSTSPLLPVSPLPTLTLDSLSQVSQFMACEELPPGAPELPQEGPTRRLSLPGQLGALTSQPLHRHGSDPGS
smiles,measurement,setting,value
Cn1c(C(C)(C)C)cc(=NC(=O)c2cc(C(F)(F)F)ccc2OCC(C)(C)O)n1CC1CCC1 [RNB-61],EC50,mouse CB2R,0.25 ± 0.13 nM
same,IC50,"MAGL; Table S1, read-out: MAGL (Ki, IC50)",> 10000 nM
same,inhibition of EC hydrolysis by MAGL,MAGL; screening concentration 10 μM,did not inhibit
same,IC50,"ABHD12; Table S1, read-out: ABHD12 (Ki, IC50)",> 10000 nM
same,inhibition of EC hydrolysis by ABHD12,ABHD12; screening concentration 10 μM,did not inhibit
same,IC50,PPARg,> 10000 nM
same,stability in aqueous solution at pH 1,"[1]; 2 h, 37 °C",104.4 % of initial [200 nM]
same,stability in aqueous solution at pH 4,"[1]; 2 h, 37 °C",102.7 % of initial [200 nM]
same,stability in aqueous solution at pH 6.5,"[1]; 2 h, 37 °C",102.7 % of initial [200 nM]
same,stability in aqueous solution at pH 8,"[1]; 2 h, 37 °C",100.5 % of initial [200 nM]
same,stability in aqueous solution at pH 10,"[1]; 2 h, 37 °C",101.6 % of initial [200 nM]
same,stability in aqueous solution,"[1]; 2 h at 37 °C at pH 1, 4, 6.5, 8 and 10",stable
same,microsomal CLint,Microsomal clearance,≤ 10 µL/min/mg
same,hERG inhibition,hERG channel,>10 µM
same,Vd,"[2]; Wistar (rats), mouse strain not stated for this study, rat, mouse, plasma, intravenous, range rats and mice, read-out: volume of distribution at steady state (Vss)",1.6 to 2.4 L/kg
same,half-life,"[2]; Wistar (rats), mouse strain not stated for this study, rat, mouse, plasma, in rats and mice, read-out: terminal plasma half-life",4 to 8 h
same,plasma clearance as share of hepatic blood flow,[2]; rodent single-dose PK,~5 % of hepatic blood flow
same,Ki,human CB2R,0.57 ± 0.03 nM
same,hCB2R selectivity,human CB2R; Ki hCB1R over Ki hCB2R,6810
same,selectivity over hCB1R,human CB2R; hCB2R over hCB1R,"6,800 fold"
